Results published in patent US20240408211A1, “COMPOSITIONS AND METHODS OF AMELIORATING AVERSIVENESS OF AVERSIVE STIMULI BY INHIBITION OF PURINERGIC RECEPTORS” (Monell Chemical Senses Center, priority 2021, published 2024).
Like-named read-outs stand apart in the source and are kept apart here.

Assays:
[1] = cited from earlier work
nodose C-fiber = conditions: guinea pigs; cited from earlier work
rats = conditions: cited from earlier work
[2] = tested on: P2X3/P2X2/3 receptors on bladder afferent nerves; conditions: rats; cited from earlier work
C57BL/6J mice = test: Brief-exposure gustometer lick test after oral swabbing (or IP injection) of briefly anesthetized mice; format: in vivo, mouse
From the text: The methods were adapted from those described by Vandenbeuch et al [Vandenbeuch, A., et al., Postsynaptic P2X3-containing receptors in gustatory nerve fibres mediate responses to all taste qualities in mice. J Physiol 593:1113-1125; 2015] who, (a) in anesthetized mice, flowed AF-353 over the anterior tongue then recorded gustatory nerve responses to tastants [see also (Larson, E. D., et al., Function, innervation, and neurotransmitter signaling in mice lacking Type-II taste cells. eNeuro 7; 2020)] and (b), in awake mice, injected AF-353 intraperitoneally then measured licking for the sweetener SC-45647. Here, we applied AF-353 to the oral cavity of briefly anesthetized mice then measured licking using procedures similar to those of our past work [Med Associates inc. Products: Gustometry, med-associates.com/product/davis-rig-for-mouse-16-bottle/. 2022; Taruno, A., et al., CALHM1 ion channel mediates purinergic neurotransmission of sweet, bitter and umami tastes. Nature 495:223-226; 2013; Tordoff, M. G., et al., Normal taste acceptance and preference of PANX1 knockout mice. Chem. Senses 2015 May 18. pii: bjv025; 2015; Tordoff, M. G.; Aleman, T. R.; McCaughey, S. A. Heightened avidity for trisodium pyrophosphate in mice lacking Taslr3. Chem. Senses 40:53-59; 2014; Tordoff, M. G.; Ellis, H. T. Taste dysfunction in BTBR mice due to a mutation of Itpr3, the inositol triphosphate receptor 3 gene. Physiol. Genomics 45:834-855; 2013] and other investigators [Glendinning, J. I.; Gresack, J.; Spector, A. C. A high-throughput screening procedure for identifying mice with aberrant taste and oromotor function. Chem. Senses 27:461-474; 2002].
Groups of 16 male C57BL/6J mice aged 7 weeks old were purchased from The Jackson Laboratory (strain ID number 000664). They were maintained in a vivarium at 23° C. on a 12 h:12 h light/dark cycle, with lights off at 1800. When not being tested, mice were housed alone in plastic tub cages (26.5×17×12 cm) with a stainless-steel grid lid and wood chips scattered on the floor [see (Tordoff, M. G.; Bachmanov, A. A. Monell mouse taste phenotyping project. Monell Chemical Senses Center, monell.org/MMTPP. 2001) for details]. The mice ate pelleted chow (Teklad 8601) and drank deionized water according to the regimen described below. Each mouse was weighed daily, immediately before it was placed into a gustometer.
Brief-exposure taste acceptance was assessed using MS160-Mouse gustometers manufactured by DiLog Instruments (now available from Med Associates). Each gustometer consists of a 14.5×30×15 cm test chamber with a motorized shutter that controls access to a taste solution. Bottles of taste solution are mounted on a rack that is precisely positioned by a stepper motor so that any one of eight different taste solutions can be presented to the mouse. The drinking spout of each bottle is part of a high-frequency alternating current contact circuit, so that each lick the mouse makes is detected and recorded. Details of construction and other technical information are available elsewhere [Med Associates inc. Products: Gustometry, med-associates.com/product/davis-rig-for-mouse-16-bottle/. 2022; Sheridan, C. Merck stakes out ‘irritable’ neuron territory with $1.25 billion. Nature biotechnology 34:900; 2016].
To train the mice to sample taste solutions, they were first deprived of water for 22.5 h, and then placed into a gustometer with its shutter open. During this first training session, each mouse had continuous access to water for 30 min. It was then returned to its home cage and given water for 1 h. During the following two days, this procedure was repeated, except the shutter allowing access to water was closed 5 sec after each time the mouse began to lick, and was re-opened after a 7.5-sec interval. After 20 min, the mouse was returned to its home cage and given water for 1 h. By the second test using these procedures, nearly all mice had learned to obtain water during the 5-sec access periods. […]

[3] = intraperitoneal, cited from earlier work
P2X3/P2X2/3 = conditions: cited from earlier work
[4] = solutions (2 mg/mL) and suspensions in acidic media; room temperature; cited from earlier work
[5] = 0.3, 1 or 3 mM swabbed orally for 4 min versus vehicle
[6] = oral swabbing for 2, 4 or 8 min versus no swabbing

Description for humans: In some experiments, we used a regimen of two 1-minute rinses with 500 μM AF-353 composition (i.e., oral topical administration).
In this study, we tested an AF-353 composition in humans as an oral rinse after receiving IRB approval for its use. First, we tested rinsing 100 μM (0.04 mg/mL) orally for 2 minutes as 4×30 sec rinses with expectoration. We tested before and after sour, bitter, sweet, and salty solutions (quinine HCl, NaCl, Praziquantal, sucrose, CO2).
Next, we tested rinsing 500 μM (0.2 mg/mL) AF-353 for two minutes, in 2×1 min increment rinses with expectoration.

SMILES: COc1cc(C(C)C)c(Oc2cnc(N)nc2N)cc1I [AF-353, 5-[5-iodo-4-methoxy-2-(1-methylethyl)phenoxy]-2,4-pyrimidinediamine]
- half-life ([1]; in rat): 1.63 h
- oral bioavailability ([1]; rat, in vivo, po): high
- CNS penetration ([1]; rat, in vivo): good
- intensity of sour, bitter, sweet and salty solutions after treatment (moderate before treatment) (humans; 100 μM (0.04 mg/mL), 2 minutes as 4×30 sec rinses, four participants): mild
- tastes after treatment (humans; 500 μM (0.2 mg/mL), 2×1 min rinses with expectoration): eliminated
- recovery from abolishment of taste (humans; 500 μM rinse, at 2 hours after rinsing): 100 % of normal
- recovery of taste perception faster in some subjects (humans; 500 μM rinse, some subjects): about 20 minutes
- ability to taste fully recovered after (humans; after oral rinse): 1.5 to 3 h
- recovery of the ability to taste began (humans; after oral rinse): ≤ 60 min
- taste blockade (sweet, sour, salty, bitter (Quinine and Praziquantel)) (humans; topical oral rinse and expectoration, 4 people): completely blocked taste
- negative side effects (oral numbing, tingling, strange oral sensations) (humans; topical oral rinse in humans): did not cause numbness or any strange sensations
- block of aroma or carbonation irritation (humans; topical oral rinse, 4 people): did not block
- bronchoconstriction-induced nodose C-fiber discharge (nodose C-fiber): blocks
- pain caused by bone cancer (rats): attenuate
- activity mediated by P2X3/P2X2/3 receptors on bladder afferent nerves [2]: counteracts
- licking for 1 mM QHCl, oral versus intraperitoneal administration of the same dose (C57BL/6J mice; 0.41 μmol/mouse): significantly more after AF-353 administered orally
- licking for 1 mM QHCl versus DMSO vehicle (C57BL/6J mice; 0.41 μmol/mouse by oral swabbing or IP injection (either route)): licked significantly more
- effect on licking for capsaicin (ANOVA) (C57BL/6J mice; 3 mM for 4 min): neither a main effect of AF-353 nor an AF-353× concentration interaction
- licking of the hedonically positive tastant saccharin relative to DMSO vehicle (C57BL/6J mice; 3 mM for 4 min): licked less
- licking of hedonically negative tastants relative to DMSO vehicle (C57BL/6J mice; 3 mM for 4 min, all (QHCl, urea, denatonium, SOA, Tenofovir Alafenamide, Praziquantel, Ferroquine, citric acid) except NaCl and capsaicin): licked more
- licking for 1 mM QHCl after oral treatment versus either vehicle (C57BL/6J mice; 3 mM in DMSO or alcohol+Tween): licked significantly more
- influence of the vehicle composition (DMSO or alcohol+Tween) on licking rates (C57BL/6J mice; 3 mM oral swab, water or 1 mM QHCl): did not influence licking rates
- lick rates for 1 mM QHCl compared with deionized water (C57BL/6J mice; 3 mM swabbed orally for 4 min): statistically indistinguishable
- licking after oral swabbing relative to oral swabbing with DMSO vehicle (FIG. 4A) (C57BL/6J mice; 3 mM, 0.41 μmol/mouse, route experiment): reduced licking
- 1 mM QHCl licking after 60-min interval relative to 10- and 30-min intervals (C57BL/6J mice; 3 mM, 4 min): significantly reduced
- lick rates for 1 mM QHCl, 10-min versus 30-min swab-test interval (C57BL/6J mice; 3 mM, 4 min): no difference
- effectiveness at 90 min after oral treatment (C57BL/6J mice; 3 mM, 4 min, 1 mM QHCl licking): completely dissipated
- lick rates for water by swab-test interval (C57BL/6J mice; 3 mM, 4 min, interval 10, 30, 60 or 90 min): no effect
- lick rate for 1 mM QHCl (C57BL/6J mice; [5]): concentration-related increase
- lick rates for deionized water (C57BL/6J mice; [5]): no significant effects
- Licks to water (mean ± SE licks made in 10-sec tests) (C57BL/6J mice; Capsaicin experiment, 3 mM oral swab): 50 ± 9
- Licks to water (mean ± SE licks made in 10-sec tests) (C57BL/6J mice; Citric acid experiment, 3 mM oral swab): 44 ± 4
- Licks to water (mean ± SE licks made in 10-sec tests) (C57BL/6J mice; Denatonium experiment, 3 mM oral swab): 53 ± 3
- Licks to water (mean ± SE licks made in 10-sec tests) (C57BL/6J mice; Ferroquine experiment, 3 mM oral swab): 47 ± 3
- Licks to water (mean ± SE licks made in 10-sec tests) (C57BL/6J mice; NaCl experiment, 3 mM oral swab): 57 ± 5
- Licks to water (mean ± SE licks made in 10-sec tests) (C57BL/6J mice; Praziquantel experiment, 3 mM oral swab): 52 ± 3
- Licks to water (mean ± SE licks made in 10-sec tests) (C57BL/6J mice; QHCl experiment, 3 mM oral swab): 56 ± 4
- Licks to water (mean ± SE licks made in 10-sec tests) (C57BL/6J mice; Saccharin experiment, 3 mM oral swab): 14 ± 2
- Licks to water (mean ± SE licks made in 10-sec tests) (C57BL/6J mice; Tenofovir experiment, 3 mM oral swab): 56 ± 2
- Licks to water (mean ± SE licks made in 10-sec tests) (C57BL/6J mice; Urea experiment, 3 mM oral swab): 43 ± 5
- lick rates for 1 mM QHCl (C57BL/6J mice; [6]): increased monotonically
- lick rates for deionized water (C57BL/6J mice; [6]): reduced lick rates for deionized water significantly
- plasma concentration ([3]; 0.25 mg/kg): 1.3 µM
- plasma concentration ([3]; 6 mg/kg): 44 µM
- P2X3/P2X2/3 antagonist potency (P2X3/P2X2/3): high
- physically and chemically stable for [4]: at least 4 weeks
